Reference: US20090252802A1, “Compositions Including Relatively Water Insoluble/Unwettable Drugs And Methods For Using Same” (priority 2006, published 2009)

Assays:
[1] = Contact angles by tilting plane method (sessile drop on tilted surface); assay type: physicochemical; details: sessile drop of water or buffered aqueous medium (50 mM sodium phosphate, pH 6.8) on tilted surface of the substance
From the text: The tilting plane method of measuring contact angles involves slowly tilting a surface or plane of a substance the contact angle of which is to be determined until a sessile drop on the plane begins to move in the downhill direction. At that time the angle between the plane and the downhill tangent of the drop at the plane is the advancing contact angle, and the angle between the plane and the uphill tangent of the drop at the plane is the receding contact angle. A procedure for determining the contact angles of a therapeutic component is as follows. A small batch of Compound III weighing approximately 30 g is micronized in a ball mill for three days using 5-mm stainless steel balls. The resulting particles have an average diameter of 8 μm. A 200-mg sample of the micronized Compound III is compressed into a wafer 12 mm in diameter and 2 mm thick using a Carver press. The wafer is then glued on to a plastic board. Separately, a 10 milliliter aqueous solution is prepared containing 50 mM sodium phosphate buffer at pH 6.8. A drop of a blue food dye is added to the solution to aid visualization. A 40 μL drop of the blue aqueous solution is placed on top of the Compound III wafer on a plastic board resting at a horizontal position. The plastic board and the wafer are then slowly tilted from their horizontal position in front of a continuous shooting camera. The process stops after the blue aqueous drop has run down the wafer. The images that show the shapes of the liquid drop just prior to it starting to run down the wafer are analyzed and the contact angles measured. Alternatively, both the advancing and receding contact angles can be measured using a KSV instrument (model CAM 200) with a tilt stage. The instrument is fully computer controlled, and it captures the video image and performs full analysis of the advancing and receding contact angles.

[2] = Dissolution in aqueous solution buffered to pH 6.8 over time (FIG. 1, FIG. 2); assay type: physicochemical; details: 100 mg sample with excipients in buffer pH 6.8, FIG. 1 curves
Protocol: Samples A and B are in the form of particles having an average diameter of about 150 microns. Samples C and D are in the form of particles having an average diameter of about 10 microns.
An aqueous solution buffered with a buffer to a pH of 6.8 is provided. A quantity of a mixture containing conventional pharmaceutically acceptable excipients is provided. In addition, a quantity of sodium dodecyl sulfate is provided.
A mixture of Sample A (100 mg) and excipients is formed and is placed in 900 ml of the aqueous solution.
A mixture of Sample C (100 mg) and excipients is formed and is placed in another 900 ml of the aqueous solution. Test samples of each of the aqueous solutions are taken at various times after each of the mixtures containing Compound III (Samples A and C) is placed in the aqueous solution. Each of these test samples is analyzed for Compound III concentration. Using these test results over a period of 240 minutes, relationships between the percentage of Sample A and Sample C dissolved and time are developed. These tests are run a total of 3 times (n=3).
Each of Samples B and D is tested in a substantially similar way. However, when testing Samples B and […], 1% based on weight of the mixture of Sample and excipient mixture, of sodium dodecyl sulfate is included in the mixture. Each of these tests is run a total of 3 times. […]

[3] = Solubility in water at 25° C.; assay type: physicochemical; details: for solubility: water; for solubility in water: unit given as mg
[4] = at doses 10-fold greater than the dose required to produce a 50% reduction in one or more symptoms; cited from earlier work

| Structure (SMILES) | advancing contact angle [1] | receding contact angle [1] | rate of dissolution (comparison in words) [2] | solubility [3] [µg/mL] | solubility in water [3] | sedation [4] |
| --- | --- | --- | --- | --- | --- | --- |
| S=c1[nH]cc(CC2CC=CC2)[nH]1 [Compound III] | 116 ° | 73 ° | relatively reduced rate of dissolution in water | < 500 | – | – |
| O=c1[nH]cc(CC2Cc3ccc(F)cc3C2)[nH]1 (centres unmarked) [Compound II] | greater than 90 ° | greater than 45 ° | – | – | less than 0.5 mg | – |
| Cc1cccc([C@@H](C)c2c[nH]c(=S)[nH]2)c1C [Compound IV] | greater than 90 ° | greater than 45 ° | – | – | less than 0.5 mg | – |
| O=C1c2ccccc2CCC1Cc1c[nH]c(=S)[nH]1 (centres unmarked) [Compound I] | greater than 90 ° | greater than 45 ° | – | < 500 | – | – |
| Cc1cccc([C@H](C)c2c[nH]cn2)c1C [dexmeditomidine] | – | – | – | – | – | completely sedating |
